Data taken from patent publication US6914057B1, “Inhibitor of cataract formation” (The Research Foundation of State University of New York, priority 1998, dated 2005).

Experiments:
[1] = tested on: Type II ZDF/GMI diabetic rats; experiment: Development of cataracts in Type II ZDF/GMI diabetic rats treated with tetracycline analogues; type: in vivo, rat; details: for percentage of Type II ZDF/GMI diabetic rats that developed cataracts: FIG. 1, treated diabetic rats, oral dose of 15 mg/kg
From the text: Diabetics develop posterior subcapsular cataracts, characterized by a central opacity in the nucleus and cortex. […] In the current study, CMT-8 administration to the Type II diabetic rats reduced the incidence of cataract development by […] at five months. In fact, this therapeutic effect may have been underestimated since it was an unexpected finding and, therefore, was not documented at the earlier time points. The mechanisms by which Type II (and Type I) diabetes causes the development of these cataracts is not yet understood.
Specifically, approximately 60% of untreated Type II ZDF/GMI diabetic rats developed cataracts whereas approximately 42% of Type II ZDF/GMI diabetic rats treated with CMT-8 developed cataracts.
In particular, approximately 60% of Type II ZDF/GMI diabetic rats treated with doxycycline developed cataracts and approximately 70% of Type II ZDF/GMI diabetic rats treated with CMT-3 developed cataracts.
It is believed that the lack of efficacy for doxycycline and CMT-3 was due to the serum concentration achieved. […] The peak serum concentration for doxycycline was determined to be 0.9 μg/ml and the peak serum concentration for CMT-3 was determined to be 4.6 μg/ml. The peak serum concentration, though, for CMT-8 was determined to be 15 μg/ml. Liu et al., The Lipophilicity and Pharmacokdnetics of Different Chemically-Modified Tetracyclines (CMTs) In Vivo, Current Medicinal Chemistry, submitted for publication in September 1999. Clearly, administration of higher oral doses of CMT-3 and doxycycline would be needed to achieve serum concentrations similar to CMT-8.
FIGS. 2 and 3 provide a comparison of healthy untreated rats with untreated Type II ZDF/GMI diabetic rats and Type II ZDF/GMI diabetic rats treated with doxycycline and CMT-8.

[2] = rat; oral dose of 15 mg/kg; cited from earlier work

In the case of `CC1c2cccc(O)c2C(O)=C2C(=O)C3(O)C(O)=C(C(N)=O)C(=O)CC3C(O)C21` (stereo not drawn) [CMT-8, 5-hydroxy-6-α-deoxy-4-dedimethylaminotetracycline], the “percentage of Type II ZDF/GMI diabetic rats that developed cataracts” value [1] was “approximately 42%”, the “cataract development in photographs compared with non-diabetic control rats (in words)” value ([1]; FIGS. 2 and 3, treated Type II ZDF/GMI diabetic rats) was “Cataracts do not appear to have developed” and the “reduction of the incidence of cataract development” value ([1]; Type II diabetic rats, at five months) was 37%. For the same compound, the “prevention of cataract development (in words)” value ([1]; ZDF/Gmi-fa Type II diabetic rats, at five months) was “appeared to prevent the development of these cataracts” and the peak serum concentration [2] was 15 µg/mL.
For `C[C@H]1c2cccc(O)c2C(=O)C2=C(O)[C@]3(O)C(=O)C(C(N)=O)=C(O)[C@@H](N(C)C)[C@@H]3[C@@H](O)[C@@H]21` [doxycycline, reference compound], the “percentage of Type II ZDF/GMI diabetic rats that developed cataracts” value [1] is given as “approximately 60%” and the peak serum concentration [2] is given as 0.9 µg/mL.
In the case of `NC(=O)C1=C(O)C[C@@H]2C[C@@H]3Cc4cccc(O)c4C(=O)C3=C(O)[C@]2(O)C1=O` [CMT-3, 6-demethyl-6-deoxy-4-dedimethylaminotetracycline], the “percentage of Type II ZDF/GMI diabetic rats that developed cataracts” value [1] is given as “approximately 70%” and the peak serum concentration [2] is given as 4.6 µg/mL.
